In PubChem BioAssay (NCI) one finds TGI and GI50 data, which are given here for 14 compounds.

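Where inhibition never reached the appropriate level, the endpoint shown equals the highest concentration tested. Otherwise, values were interpolated linearly from a five-concentration, 48-hour dose response in 96-well plates. At the GI50, growth is halved. The concentration for full growth arrest is given as TGI.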 A value given as a limit tells only on which side of the number the result lay.

Test systems include U251 CNS; SNB-75 CNS; 786-0 renal; HS 578T breast; MDA-MB-435; IGROV1 ovarian; CCRF-CEM leukemia; T-47D breast; HCC-2998 colon; OVCAR-4 ovarian.
Holding throughout (test): growth of human tumour cells (NCI), 48 h

For the compound `CN1CCN(c2nc3c(c(=O)n(C)c(=O)n3C)n2C)CC1`, the TGI with U251 CNS, in the assay with SNB-75 CNS, with 786-0 renal, with HS 578T breast, in the assay with MDA-MB-435 and in the assay on IGROV1 ovarian was over 100 µM each time. Also, the TGI in the assay on CCRF-CEM leukemia, in the assay on T-47D breast, in the assay with HCC-2998 colon and with OVCAR-4 ovarian was over 100 µM each time.

As to `CCN1CCc2sc3[nH]c(=S)n(C)c(=O)c3c2C1`, the TGI in the assay on U251 CNS, with SNB-75 CNS, with 786-0 renal, with HS 578T breast, with MDA-MB-435 and in the assay with IGROV1 ovarian was over 100 µM in each case. The TGI with CCRF-CEM leukemia, in the assay with T-47D breast, in the assay with HCC-2998 colon and with OVCAR-4 ovarian was over 100 µM each time.

Take `CCO/C=N/C1=C(C#N)C(c2ccc(OC)c(OC)c2)c2c(-c3ccccc3)nn(-c3ccccc3)c2O1` (centres undefined): the TGI in the assay with U251 CNS is 26.8 µM; in the assay with SNB-75 CNS, 34.2 µM; with 786-0 renal, 29.2 µM; in the assay on HS 578T breast it was over 100 µM; in the assay on MDA-MB-435 it was 33.1 µM; with IGROV1 ovarian, 14.8 µM. Also, the TGI was 6.26 µM with CCRF-CEM leukemia, 60.5 µM in the assay on T-47D breast and over 100 µM in the assay with HCC-2998 colon.

With `COc1ccc2[nH]c3c(C)c4ccnc(NCCCN(C)CCCNC(=O)NCCCN(C)CCCNc5nccc6c(C)c7[nH]c8ccc(OC)cc8c7c(C)c56)c4c(C)c3c2c1`, the TGI with SNB-75 CNS is 1.56 µM; in the assay with 786-0 renal, 1.2 µM; in the assay with HS 578T breast, over 50 µM; in the assay with MDA-MB-435, 1.24 µM; with IGROV1 ovarian, 2.05 µM; in the assay with CCRF-CEM leukemia, 6.01 µM. The values for the TGI with T-47D breast, in the assay on HCC-2998 colon and in the assay on OVCAR-4 ovarian were 2.29 µM, 1.13 µM and 7.83 µM, respectively.

In the case of `COC[C@@H](N=Cc1ccc(OC)cc1)C(C)C`, the TGI with U251 CNS, in the assay with SNB-75 CNS, with 786-0 renal, in the assay with HS 578T breast, in the assay on MDA-MB-435 and in the assay on IGROV1 ovarian was over 100 µM throughout. Besides, the TGI in the assay on CCRF-CEM leukemia, in the assay with T-47D breast and in the assay on OVCAR-4 ovarian was over 100 µM throughout.

On to `N#Cc1ccc(/C=C2\Cc3ccccc3C2=O)cc1`, for which the TGI in the assay on SNB-75 CNS, with 786-0 renal, in the assay on HS 578T breast, with MDA-MB-435, in the assay on CCRF-CEM leukemia and in the assay on T-47D breast was over 100 µM each time. In addition, the TGI in the assay with HCC-2998 colon and in the assay with OVCAR-4 ovarian was over 100 µM in each case.

Turning to `C[C@H]1C(=O)C2=C[C@H]1CCC(=O)[C@]1(C)CCCC(C)(C)[C@H]1C[C@H]2O`, the TGI is 28.4 µM in the assay on U251 CNS; 82.8 µM with SNB-75 CNS; 32.5 µM in the assay with 786-0 renal; 62.7 µM in the assay with HS 578T breast; over 100 µM in the assay with MDA-MB-435; over 100 µM with IGROV1 ovarian. Also, the TGI in the assay on CCRF-CEM leukemia is 75.4 µM; in the assay with T-47D breast, 32.9 µM; in the assay on OVCAR-4 ovarian, over 100 µM.

Turning to `COc1cccc2c(NNc3ccc(Cl)cc3)c3ccc([N+](=O)[O-])cc3nc12`, the TGI in the assay with U251 CNS was 31.2 µM; in the assay on 786-0 renal, 21.2 µM; with HS 578T breast, 50.6 µM; in the assay with MDA-MB-435 it was over 100 µM; in the assay with CCRF-CEM leukemia, 15.6 µM; in the assay with T-47D breast it was 61.8 µM. Further, the figures for the TGI in the assay on HCC-2998 colon and with OVCAR-4 ovarian were 53 µM and 30.9 µM, respectively.

As for `Cc1ccc(-n2cc(-c3ccc(Cl)cc3)c3c(NNC(=S)NCc4ccccc4)ncnc32)cc1`, the TGI in the assay on U251 CNS is 48.6 µM; with 786-0 renal it was 51.1 µM; in the assay with HS 578T breast, over 100 µM; in the assay on MDA-MB-435, 76.1 µM; in the assay on IGROV1 ovarian, 54.4 µM; with CCRF-CEM leukemia, over 100 µM. Besides, the TGI in the assay with T-47D breast and in the assay on OVCAR-4 ovarian was over 100 µM throughout.

Regarding `COC(=O)c1ccc2[nH]c3c(c2c1)CC(=O)Nc1ccccc1-3`, the TGI in the assay on U251 CNS was 94.6 µM; with SNB-75 CNS it was 6.11 µM; with 786-0 renal it was over 100 µM; in the assay with HS 578T breast, over 100 µM; in the assay with MDA-MB-435, over 100 µM; with IGROV1 ovarian it was over 100 µM. Besides, the TGI with T-47D breast was over 100 µM; in the assay with HCC-2998 colon, over 100 µM; in the assay with OVCAR-4 ovarian, 40.2 µM.

As to `CCCCCCc1cc2cc(C(=O)Nc3cccc(C(F)(F)F)c3)c(=N)oc2cc1O`, the TGI with U251 CNS was 3.5 µM; with SNB-75 CNS it was 3.01 µM; in the assay with 786-0 renal it was 6.27 µM; with HS 578T breast it was 9.99 µM; with MDA-MB-435 it was 5.18 µM; in the assay on IGROV1 ovarian, 11.1 µM. For the same compound, the results for the TGI in the assay with T-47D breast, in the assay with HCC-2998 colon and in the assay on OVCAR-4 ovarian were 1.04 µM, 15.8 µM and 14.3 µM, respectively.

`Clc1ccc(CCN2CCN(CCCc3ccccc3)CC2)cc1Cl`: the TGI with U251 CNS was 31.9 µM; with 786-0 renal, 30.2 µM; in the assay on HS 578T breast it was 44.9 µM; with MDA-MB-435, 31.1 µM; with IGROV1 ovarian, 31.3 µM; in the assay on CCRF-CEM leukemia it was over 100 µM. The TGI with T-47D breast amounted to 35.1 µM; in the assay with HCC-2998 colon it was 31.3 µM; in the assay on OVCAR-4 ovarian, 31.4 µM.

`O=C(O)CCCCCNC(=O)CCC(CN(CC(=O)OCc1ccccc1)CC(=O)OCc1ccccc1)N(CC(=O)OCc1ccccc1)CC(=O)OCc1ccccc1` (centres undefined): the TGI with U251 CNS was 46.6 µM; with 786-0 renal, 34.1 µM; with HS 578T breast, 41.9 µM; in the assay with MDA-MB-435 it was 35.4 µM; with IGROV1 ovarian, 33.8 µM; in the assay with CCRF-CEM leukemia, 39.7 µM. The TGI with T-47D breast came to 36.9 µM; with HCC-2998 colon it was 30.5 µM; with OVCAR-4 ovarian, 32.5 µM.

Take `CN(C)CCCn1c2c(c3ccncc3c1=O)C(=O)c1ccccc1-2`: the GI50 in the assay with U251 CNS was 0.757 µM; with SNB-75 CNS, 1.02 µM; in the assay with HS 578T breast, 1.74 µM; with MDA-MB-435, 1.55 µM; in the assay on IGROV1 ovarian, 0.955 µM; with CCRF-CEM leukemia, 0.77 µM. In addition, the GI50 in the assay with T-47D breast was 1.67 µM; in the assay on HCC-2998 colon, 1.38 µM; in the assay on OVCAR-4 ovarian, 1.37 µM. For the same compound, the TGI with U251 CNS was 15.3 µM; with SNB-75 CNS it was 5.88 µM; in the assay on HS 578T breast it was 14.3 µM; in the assay on MDA-MB-435 it was 4.15 µM; in the assay on IGROV1 ovarian, over 100 µM; in the assay on CCRF-CEM leukemia, 13 µM. The results for the TGI in the assay with T-47D breast, in the assay on HCC-2998 colon and with OVCAR-4 ovarian were 21 µM, 5.31 µM and 8.67 µM, respectively.
